Experiments:
Type in all cases: in vivo
[1] = test system: Myzus persicae (Green Peach Aphid); assay: Myzus persicae (Green Peach Aphid): Feeding/Contact Activity; conditions: foliar, 144 h, application rate of 200 ppm, aphid population of mixed ages on sprayed sunflower leaf discs, 6 days after infestation
Description: Example B6: Myzus persicae (Green Peach Aphid): Feeding/Contact Activity
Sunflower leaf discs were placed onto agar in a 24-well microtiter plate and sprayed with aqueous test solutions prepared from 10'000 ppm DMSO stock solutions. After drying, the leaf discs were infested with an aphid population of mixed ages. The samples were assessed for mortality 6 days after infestation.

[2] = test system: Diabrotica Balteata (Corn Root Worm); assay: Diabrotica balteata (Corn Root Worm), sprayed maize sprouts; conditions: 96 h, application rate of 200 ppm, L2 larvae on sprayed maize sprouts, 4 days after infestation, read-out: effect in at least one of the two categories (mortality or growth inhibition)
Description: Example B2: Diabrotica Balteata (Corn Root Worm)
Maize sprouts placed onto an agar layer in 24-well microtiter plates were treated with aqueous test solutions prepared from 10'000 ppm DMSO stock solutions by spraying. After drying, the plates were infested with L2 larvae (6 to 10 per well). The samples were assessed for mortality and growth inhibition in comparison to untreated samples 4 days after infestation.

[3] = test system: Spodoptera littoralis (Egyptian Cotton Leaf Worm); assay: Spodoptera littoralis (Egyptian Cotton Leaf Worm), sprayed cotton leaf discs; conditions: foliar, 72 h, application rate of 200 ppm, L1 larvae on sprayed cotton leaf discs, 3 days after infestation, read-out: control (mortality, anti-feeding effect or growth inhibition)
Description: Example B8: Spodoptera littoralis (Egyptian Cotton Leaf Worm)
Cotton leaf discs were placed onto agar in 24-well microtiter plates and sprayed with aqueous test solutions prepared from 10'000 ppm DMSO stock solutions. After drying the leaf discs were infested with five L1 larvae. The samples were assessed for mortality, anti-feeding effect, and growth inhibition in comparison to untreated samples 3 days after infestation. Control of Spodoptera littoralis by a test sample is given when at least one of the categories mortality, anti-feedant effect, and growth inhibition is higher than the untreated sample.

[4] = test system: Nilaparvata lugens (Brown Plant Hopper); assay: Nilaparvata lugens (Brown Plant Hopper): Larvicide, Systemic into Water; conditions: 168 h, test rate of 12.5 ppm, rice plants in nutritive solution, N3 nymphs, 7 days after infestation
Description: Example B12: Nilaparvata lugens (Brown Plant Hopper): Larvicide, Systemic into Water
Rice plants cultivated in a nutritive solution were treated with the diluted test solutions into nourishing cultivation system. 1 day after application plants were infested with ˜20 N3 nymphs. 7 days after infestation samples were assessed for mortality and growth regulation.

[5] = test system: Bemisia tabaci (Cotton White Fly); assay: Bemisia tabaci (Cotton White Fly): Feeding/Contact Activity; conditions: foliar, 144 h, application rate of 200 ppm, adult white flies on sprayed cotton leaf discs, 6 days after incubation
Description: Example B1: Bemisia tabaci (Cotton White Fly): Feeding/Contact Activity
Cotton leaf discs were placed on agar in 24-well microtiter plates and sprayed with aqueous test solutions prepared from 10'000 ppm DMSO stock solutions. After drying the leaf discs were infested with adult white flies. The samples were checked for mortality 6 days after incubation.

[6] = test system: Nilaparvata lugens (Brown Plant Hopper); assay: Nilaparvata lugens (Brown Plant Hopper): Igr, Feeding/Contact; conditions: 360 h, application rate of 50 ppm, sprayed rice plants, N3 nymphs, assessed for effect on F1 generation 15 days after the treatment
Description: Example B11: Nilaparvata lugens (Brown Plant Hopper): Igr, Feeding/Contact
Rice plants were treated with the diluted test solutions in a spray chamber. After drying plants were infested with ˜20 N3 nymphs. 7 days after treatment adults were removed and 15 days after the treatment samples were assessed for effect on F1 generation.

[7] = test system: Plutella xylostella (Diamond Back Moth); assay: Plutella xylostella (Diamond Back Moth), treated artificial diet; conditions: 192 h, application rate of 200 ppm, eggs on treated artificial diet, 8 days after infestation, read-out: effect in at least one of the two categories (mortality or growth inhibition)
Description: Example B5: Plutella xylostella (Diamond Back Moth)
24-well microtiter plates with artificial diet were treated with aqueous test solutions prepared from 10'000 ppm DMSO stock solutions by pipetting. After drying, Plutella eggs were pipetted through a plastic stencil onto a gel blotting paper and the plate was closed with it. The samples were assessed for mortality and growth inhibition in comparison to untreated samples 8 days after infestation.

[8] = test system: Myzus persicae (Green Peach Aphid); assay: Myzus persicae (Green Peach Aphid): Systemic Activity; conditions: 144 h, test rate of 24 ppm, roots of infested pea seedlings placed into test solutions, 6 days
Description: Example B7: Myzus persicae (Green Peach Aphid): Systemic Activity
Roots of pea seedlings infested with an aphid population of mixed ages were placed directly into aqueous test solutions prepared from 10'000 DMSO stock solutions. The samples were assessed for mortality 6 days after placing seedlings into test solutions.

[9] = test system: Euschistus heros (Neotropical Brown Stink Bug); assay: Euschistus heros (Neotropical Brown Stink Bug), sprayed soybean leaves; conditions: 120 h, application rate of 200 ppm, N2 nymphs on sprayed soybean leaves, 5 days after infestation, read-out: effect in at least one of the two categories (mortality or growth inhibition)
Description: Example B3: Euschistus heros (Neotropical Brown Stink Bug)
Soybean leaves on agar in 24-well microtiter plates were sprayed with aqueous test solutions prepared from 10'000 ppm DMSO stock solutions. After drying the leaves were infested with N2 nymphs. The samples were assessed for mortality and growth inhibition in comparison to untreated samples 5 days after infestation.

[10] = test system: Nilaparvata lugens (Brown Plant Hopper); assay: Nilaparvata lugens (Brown Plant Hopper): Larvicide, Feeding/Contact; conditions: 168 h, application rate of 50 ppm, N3 nymphs on sprayed rice plants, 7 days after the treatment
Description: Example B10: Nilaparvata lugens (Brown Plant Hopper): Larvicide, Feeding/Contact
Rice plants were treated with the diluted test solutions in a spray chamber. After drying plants were infested with ˜20 N3 nymphs. 7 days after the treatment samples were assessed for mortality and growth regulation.

CCS(=O)(=O)c1cc(C(C)(C)C#N)cnc1N1Cc2cnc(C(F)(F)F)cc2C1=O [Compound P2, 2-[5-ethylsulfonyl-6-[1-oxo-6-(trifluoromethyl)-3H-pyrrolo[3,4-c]pyridin-2-yl]-3-pyridyl]-2-methyl-propanenitrile]
≥ 80%: mortality at 200 ppm [1] | percent effect (mortality or growth inhibition) at 200 ppm [2] | percent control (mortality, anti-feedant effect or growth inhibition) at 200 ppm [3] | mortality at 12.5 ppm [4] | mortality at 200 ppm [5] | mortality at 50 ppm [6] | percent effect (mortality or growth inhibition) at 200 ppm [7] | mortality at 24 ppm [8] | percent effect (mortality or growth inhibition) at 200 ppm [9] | mortality at 50 ppm [10]

CCS(=O)(=O)c1cc(-n2ccc(C(F)(F)F)n2)cnc1N1Cc2cnc(C(F)(F)F)cc2C1=O [Compound P9, 2-[3-ethylsulfonyl-5-[3-(trifluoromethyl)pyrazol-1-yl]-2-pyridyl]-6-(trifluoromethyl)-3H-pyrrolo[3,4-c]pyridin-1-one]
≥ 80%: mortality at 200 ppm [1] | percent effect (mortality or growth inhibition) at 200 ppm [2] | percent control (mortality, anti-feedant effect or growth inhibition) at 200 ppm [3] | mortality at 12.5 ppm [4] | mortality at 200 ppm [5] | mortality at 50 ppm [6] | percent effect (mortality or growth inhibition) at 200 ppm [7] | percent effect (mortality or growth inhibition) at 200 ppm [9]

CCS(=O)(=O)c1cccnc1N1Cc2cnc(C(F)(F)F)cc2C1=O [Compound P1, 2-(3-ethylsulfonyl-2-pyridyl)-6-(trifluoromethyl)-3H-pyrrolo[3,4-c]pyridin-1-one]
≥ 80%: mortality at 200 ppm [1] | percent effect (mortality or growth inhibition) at 200 ppm [2] | percent control (mortality, anti-feedant effect or growth inhibition) at 200 ppm [3] | mortality at 12.5 ppm [4] | percent effect (mortality or growth inhibition) at 200 ppm [7] | mortality at 24 ppm [8] | percent effect (mortality or growth inhibition) at 200 ppm [9]

CCS(=O)(=O)c1cc(-n2ccc(Cl)n2)cnc1N1Cc2cnc(C(F)(F)F)cc2C1=O [Compound P13, 2-[5-(3-chloropyrazol-1-yl)-3-ethylsulfonyl-2-pyridyl]-6-(trifluoromethyl)-3H-pyrrolo[3,4-c]pyridin-1-one]
≥ 80%: mortality at 200 ppm [1] | percent effect (mortality or growth inhibition) at 200 ppm [2] | percent control (mortality, anti-feedant effect or growth inhibition) at 200 ppm [3] | mortality at 12.5 ppm [4] | mortality at 200 ppm [5] | percent effect (mortality or growth inhibition) at 200 ppm [7] | percent effect (mortality or growth inhibition) at 200 ppm [9]

CCS(=O)(=O)c1ccc(N(C)C(=O)NC)nc1N1Cc2cnc(C(F)(F)F)cc2C1=O [Compound P6, 1-[5-ethylsulfonyl-6-[1-oxo-6-(trifluoromethyl)-3H-pyrrolo[3,4-c]pyridin-2-yl]-2-pyridyl]-1,3-dimethyl-urea]
≥ 80%: mortality at 200 ppm [1] | percent effect (mortality or growth inhibition) at 200 ppm [2] | mortality at 12.5 ppm [4] | mortality at 200 ppm [5] | percent effect (mortality or growth inhibition) at 200 ppm [7] | mortality at 24 ppm [8] | percent effect (mortality or growth inhibition) at 200 ppm [9] | mortality at 50 ppm [10]

CCS(=O)(=O)c1ccc(NC)nc1N1Cc2cnc(C(F)(F)F)cc2C1=O [Compound P4, 2-[3-ethylsulfonyl-6-(methylamino)-2-pyridyl]-6-(trifluoromethyl)-3H-pyrrolo[3,4-c]pyridin-1-one]
≥ 80%: mortality at 200 ppm [1] | percent effect (mortality or growth inhibition) at 200 ppm [2] | percent control (mortality, anti-feedant effect or growth inhibition) at 200 ppm [3] | mortality at 12.5 ppm [4] | mortality at 50 ppm [6] | percent effect (mortality or growth inhibition) at 200 ppm [7] | mortality at 24 ppm [8] | percent effect (mortality or growth inhibition) at 200 ppm [9] | mortality at 50 ppm [10]

CCS(=O)(=O)c1cc(Oc2ccccn2)cnc1N1Cc2cnc(C(F)(F)F)cc2C1=O [Compound P12, 2-[3-ethylsulfonyl-5-(2-pyridyloxy)-2-pyridyl]-6-(trifluoromethyl)-3H-pyrrolo[3,4-c]pyridin-1-one]
≥ 80%: mortality at 200 ppm [1] | percent effect (mortality or growth inhibition) at 200 ppm [2] | percent control (mortality, anti-feedant effect or growth inhibition) at 200 ppm [3] | mortality at 12.5 ppm [4] | percent effect (mortality or growth inhibition) at 200 ppm [7] | mortality at 24 ppm [8] | percent effect (mortality or growth inhibition) at 200 ppm [9]

Reference: patent publication US12538924B2, “Pesticidally active heterocyclic derivatives with sulfur containing substituents” (SYNGENTA CROP PROTECTION AG, priority 2019, dated 2026)
